Test results reported in article PMC3175016 (Journal of applied toxicology : JAT, 2011).
Marks after values point to notes of the source that are not given here.

Key:
Type in all cases: in vivo
male Fischer 344 rats [1] = experiment: Liver histology; settings: 24 h
male Fischer 344 rats [2] = experiment: Kidney histology; settings: all doses evaluated, i.p., 24 h, vs corn oil
male Fischer 344 rats [3] = experiment: Liver weight 24 h after a single i.p. dose; settings: i.p. in corn oil, mean ± SE, N = 3–4
male Fischer 344 rats [4] = experiment: Six-hour urine protein content after a single i.p. dose; settings: i.p. in corn oil, mean ± SE, N = 3–4
male Fischer 344 rats [5] = experiment: Kidney weight 24 h after a single i.p. dose; settings: i.p. in corn oil, mean ± SE, N = 3–4
male Fischer 344 rats [6] = experiment: Blood urea nitrogen; settings: for Blood urea nitrogen: i.p. in corn oil, 24 h, mean ± SE, N = 3–4
male Fischer 344 rats [7] = experiment: Urine volume after a single i.p. dose; settings: for Twenty-four-hour urine volume: i.p. in corn oil, mean ± SE, N = 3–4
male Fischer 344 rats [8] = experiment: Serum alanine aminotransferase; settings: 24 h; for serum alanine aminotransferase (ALT) activity: corn oil controls 36.0 ± 11.3
[9] = all doses (0.2–1.0 mmol/kg) i.p.
[10] = dose 0.2 (head mg/kg; text mmol/kg)
[11] = dose 0.4 (head mg/kg; text mmol/kg)
[12] = dose 0.6 (head mg/kg; text mmol/kg)
[13] = dose 1.0 (head mg/kg; text mmol/kg)
[14] = all four doses (0.2, 0.4, 0.6, 1.0 mmol/kg) i.p., vs corn oil

Structure (SMILES)	Kidney morphology (male Fischer 344 rats [2])	Liver weight (male Fischer 344 rats [3]; [10])	Liver weight (male Fischer 344 rats [3]; [11])	Liver weight (male Fischer 344 rats [3]; [12])	Liver weight (male Fischer 344 rats [3]; [13])	Six-hour urine protein content (male Fischer 344 rats [4]; [10])	Six-hour urine protein content (male Fischer 344 rats [4]; [11])	Six-hour urine protein content (male Fischer 344 rats [4]; [12])	Six-hour urine protein content (male Fischer 344 rats [4]; [13])	Kidney weight (male Fischer 344 rats [5]; [10])	Kidney weight (male Fischer 344 rats [5]; [11])	Kidney weight (male Fischer 344 rats [5]; [12])	Kidney weight (male Fischer 344 rats [5]; [13])	Blood urea nitrogen (male Fischer 344 rats [6]; [10])	Blood urea nitrogen (male Fischer 344 rats [6]; [11])	Blood urea nitrogen (male Fischer 344 rats [6]; [12])	Blood urea nitrogen (male Fischer 344 rats [6]; [13])	Twenty-four-hour urine volume (male Fischer 344 rats [7]; [10])	Twenty-four-hour urine volume (male Fischer 344 rats [7]; [11])	Twenty-four-hour urine volume (male Fischer 344 rats [7]; [12])	further results
O=C1CSC(=O)N1c1ccc(Cl)cc1 [CPTD, 3-(4-chlorophenyl)-2,4-thiazolidinedione]	minor swelling in some proximal tubular cells	3.62 ± 0.16^c g/100% BW	3.84 ± 0.07^c g/100% BW	4.36 ± 0.06*,^d g/100% BW	3.98 ± 0.14*,^c g/100% BW	2.0 ± 0.1^c mg	1.9 ± 0.1^c mg	2.0 ± 0.1^c mg	1.9 ± 0.1^c mg	0.39 ± 0.02^b g/ 100% BW	0.41 ± 0.01^b g/ 100% BW	0.46 ± 0.02*,^c g/ 100% BW	0.51 ± 0.04*,^c g/ 100% BW	37.9 ± 0.6*,^c mg/dl	38.1 ± 1.7*,^c mg/dl	40.4 ± 2.7*,^c mg/dl	34.9 ± 1.8*,^c mg/dl	5.7 ± 1.5^b ml	12.4 ± 4.6*,^c ml	16.6 ± 0.8*,^c ml	Liver morphology (male Fischer 344 rats [1]; 1.0 mmol/kg i.p.): signs of liquefactive necrosis; Liver morphology (male Fischer 344 rats [1]; [9]): necrotic lesions with acute inflammatory response; Increase in BUN levels (male Fischer 344 rats [6]; all dosages, compared to corn oil controls): 1.8 fold; Twenty-four-hour urine volume (male Fischer 344 rats [7]; [13]): 15.3 ± 2.7*,^c ml; serum alanine aminotransferase (ALT) activity (male Fischer 344 rats [8]; 1.0 mmol/kg i.p. in corn oil): 1622.5 ± 218.5 Sigma-Frankel units/ml; Change in serum ALT levels (male Fischer 344 rats [8]; [14]): significantly elevated
O=C1CSCN1c1cc(Cl)cc(Cl)c1 [4-DCTD, 3-(3,5-dichlorophenyl)-4-thiazolidinone]	Minor swelling in the proximal tubular cells and slight dilation of collecting tubules	3.74 ± 0.23^c g/100% BW	3.96 ± 0.18^c g/100% BW	3.46 ± 0.09^c g/100% BW	3.81 ± 0.15^c g/100% BW	1.8 ± 0.3^c mg	1.6 ± 0.2^c mg	1.9 ± 0.4^c mg	2.8 ± 0.3^c mg	0.40 ± 0.01^d g/ 100% BW	0.37 ± 0.01^d g/ 100% BW	0.41 ± 0.01^d g/ 100% BW	0.42 ± 0.01^d g/ 100% BW	26.8 ± 1.5^d mg/dl	25.6 ± 1.9^d mg/dl	33.8 ± 2.4*,^e mg/dl	42.5 ± 1.1*,^f mg/dl	12.3 ± 1.7*,^c ml	11.3 ± 2.2*,^c ml	9.1 ± 1.6*,^c ml	Liver morphology (male Fischer 344 rats [1]; [9]): no changes in hepatic morphology; Diuresis / increase in urine volume (male Fischer 344 rats [7]; all doses, compared to controls, not dose-dependent): approximately three and a half-fold increase; Twenty-four-hour urine volume (male Fischer 344 rats [7]; [13]): 12.3 ± 1.0*,^c ml; Change in serum ALT levels (male Fischer 344 rats [8]; [14]): did not exhibit any significant changes in serum ALT levels
CC1SC(=O)N(c2cc(Cl)cc(Cl)c2)C1=O (centres unmarked) [DPMT, 3-(3,5-dichlorophenyl)-5-methyl-2,4-thiazolidinedione]	did not exhibit obvious changes in kidney morphology	3.67 ± 0.31^a g/100% BW	3.81 ± 0.22^a g/100% BW	4.03 ± 0.27^a g/100% BW	4.10 ± 0.07^a g/100% BW	2.1 ± 0.7^a mg	1.6 ± 0.1^a mg	2.6 ± 0.8^a mg	2.5 ± 0.3^a mg	0.37 ± 0.01^a g/ 100% BW	0.38 ± 0.01^a g/ 100% BW	0.39 ± 0.01^a g/ 100% BW	0.41 ± 0.01^a g/ 100% BW	19.6 ± 0.8^a mg/dl	24.6 ± 1.3^a mg/dl	19.8 ± 2.8^a mg/dl	20.0 ± 2.2^a mg/dl	6.5 ± 2.1^a ml	8.1 ± 1.7^a ml	11.6 ± 1.0*,^a ml	Liver morphology (male Fischer 344 rats [1]; 0.6 mmol/kg i.p.): some damage near the centrilobular vein; Liver morphology (male Fischer 344 rats [1]; 1.0 mmol/kg i.p.): more damaged hepatocytes; Liver morphology (male Fischer 344 rats [1]; 0.2 and 0.4 mmol/kg i.p.): did not show any noticeable changes in liver morphology; Increase in urine volume (male Fischer 344 rats [7]; 0.6 and 1.0 mmol/kg): about three-fold increase; Twenty-four-hour urine volume (male Fischer 344 rats [7]; [13]): 10.8 ± 1.3*,^a ml; serum alanine aminotransferase (ALT) activity (male Fischer 344 rats [8]; 0.6 mmol/kg i.p. in corn oil): 298.6 ± 176.1 Sigma-Frankel units/ml; serum alanine aminotransferase (ALT) activity (male Fischer 344 rats [8]; 1.0 mmol/kg i.p. in corn oil): 327.3 ± 102.9 Sigma-Frankel units/ml; Change in serum ALT levels (male Fischer 344 rats [8]; 0.6 and 1.0 mmol/kg i.p., vs two lower doses and corn oil): significant elevation in ALT concentrations
Cc1cc(C)cc(N2C(=O)CSC2=O)c1 [DMPT, 3-(3,5-dimethylphenyl)-2,4-thiazolidinedione]	normal	3.47 ± 0.20^a g/100% BW	4.10 ± 0.20*,^b g/100% BW	4.20 ± 0.05*,^b g/100% BW	3.97 ± 0.04*,^b g/100% BW	0.8 ± 0.3^a mg	1.4 ± 0.1^a mg	1.9 ± 0.2^a mg	2.8 ± 0.4*,^b mg	0.38 ± 0.01^a g/ 100% BW	0.40 ± 0.02^a g/ 100% BW	0.39 ± 0.00^a g/ 100% BW	0.38 ± 0.01^a g/ 100% BW	18.1 ± 1.3^a mg/dl	22.2 ± 0.4^a mg/dl	27.5 ± 1.4*,^b mg/dl	32.8 ± 3.1*,^b mg/dl	5.8 ± 1.4*,^a ml	9.9 ± 2.2*,^a ml	8.9 ± 1.8*,^a ml	Liver morphology (male Fischer 344 rats [1]; 0.2 and 0.4 mmol/kg i.p.): necrotic lesions with infiltration of inflammatory cells, neutrophils and lymphocytes; Liver morphology (male Fischer 344 rats [1]; 0.6 and 1.0 mmol/kg i.p.): necrotic lesions were widespread with many inflammatory cells seen around the lesions; Twenty-four-hour urine volume (male Fischer 344 rats [7]; [13]): 11.3 ± 2.5*,^a ml; serum alanine aminotransferase (ALT) activity (male Fischer 344 rats [8]; 1.0 mmol/kg i.p. in corn oil): 2071.9 ± 217.8 Sigma-Frankel units/ml; Change in serum ALT levels (male Fischer 344 rats [8]; all doses except the lowest (0.4, 0.6, 1.0 mmol/kg) i.p., vs corn oil): marked increases in serum ALT levels
O=C1CSC(=O)N1c1cc(C(F)(F)F)cc(C(F)(F)F)c1 [DFMPT, 3-[3,5-bis(trifluoromethyl)phenyl]-2,4-thiazolidinedione]	minor swelling in some proximal tubular cells	3.82 ± 0.12^f g/100% BW	3.59 ± 0.10^f g/100% BW	3.78 ± 0.07^f g/100% BW	4.05 ± 0.15*,^f g/100% BW	1.1 ± 0.3^e mg	1.6 ± 0.2^e mg	1.5 ± 0.2^e mg	1.0 ± 0.2^e mg	0.40 ± 0.01^g g/ 100% BW	0.42 ± 0.03^g g/ 100% BW	0.30 ± 0.09^g g/ 100% BW	0.48 ± 0.01*,^h g/ 100% BW	19.6 ± 0.5^e mg/dl	21.7 ± 0.4^e mg/dl	22.5 ± 0.5^e mg/dl	32.7 ± 1.4*,^f mg/dl	10.1 ± 1.3*,^f ml	14.1 ± 2.6*,^f,^g ml	20.0 ± 3.1*,^g,^h ml	Liver morphology (male Fischer 344 rats [1]; [9]): did not show any noticeable changes in morphology; Twenty-four-hour urine volume (male Fischer 344 rats [7]; [13]): 23.5 ± 1.8*,^h ml; Change in serum ALT levels (male Fischer 344 rats [8]; [14]): normal
O=C1SCCN1c1cc(Cl)cc(Cl)c1 [2-DCTD, 3-(3,5-dichlorophenyl)-2-thiazolidinone]	did not produce any noticeable changes in the kidney morphology	3.96 ± 0.10^d g/100% BW	3.71 ± 0.11^d g/100% BW	3.74 ± 0.11^d g/100% BW	3.85 ± 0.15^d g/100% BW	1.6 ± 0.4^d mg	1.8 ± 0.1^d mg	2.2 ± 0.1^d mg	2.0 ± 0.1^d mg	0.39 ± 0.01^e g/ 100% BW	0.38 ± 0.01^e g/ 100% BW	0.40 ± 0.01^e g/ 100% BW	0.37 ± 0.01^e g/ 100% BW	23.0 ± 1.2^g mg/dl	22.3 ± 1.1^g mg/dl	23.9 ± 0.9^g mg/dl	24.4 ± 0.7^g mg/dl	6.0 ± 0.8^d ml	4.3 ± 0.3^d ml	5.0 ± 0.7^d ml	Liver morphology (male Fischer 344 rats [1]; [9]): generally normal, although some nuclear condensation was evident; Twenty-four-hour urine volume (male Fischer 344 rats [7]; [13]): 4.4 ± 1.3^d ml; Change in serum ALT levels (male Fischer 344 rats [8]; [14]): did not exhibit any significant changes in serum ALT levels
